Test results published in ChEMBL document CHEMBL3112483, “Synthesis and cytotoxic activity of MOM-ether analogs of isosteviol” (Bioorg Med Chem Lett, 2014).
pIC50: −log10 of the molar value.

Experiments:
NCI-H1299 [1] = experiment: Induction of apoptosis in human […] cells expressing wild type p53 at IC50 assessed as histone release by ELISA relative to control; format: functional
NCI-H1299 [2] = experiment: Induction of apoptosis in p53 deficient human H1299 cells at IC50 assessed as histone release by ELISA relative to control; format: functional
[3] = Cytotoxicity against p53 deficient human H1299 cells at 100 uM after 24 hrs by MTT assay; format: functional; conditions: NCI-H1299, 24 h, read-out: GI
[4] = Cytotoxicity against p53 deficient human H1299 cells after 24 hrs by MTT assay; format: functional, cell-based; conditions: NCI-H1299, 24 h
[5] = Induction of apoptosis in human NL20 cells at IC50 assessed as histone release by ELISA relative to control; format: cell-based
[6] = Cytotoxicity against human NL20 cells at IC50 after 24 hrs by MTT assay; format: cell-based; conditions: nl20, 24 h
A549 = experiment: Cytotoxicity against human A549 cells; format: functional, cell-based

| Compound | inhibition of growth at 100 µM [3] | other results |
| --- | --- | --- |
| CCCCCCCC(=O)OC[C@]1(C)CCC[C@]2(C)[C@@H]1CC[C@@]13C[C@@H](OCOC)[C@@](C)(CC[C@H]12)C3 | 95% | fold change (FC) (NCI-H1299 [1]): 2; fold change (FC) (NCI-H1299 [2]): 10; pIC50 [4]: 4.85; fold change (FC) [5]: 4; Activity [6]: 20% |
| COCO[C@@H]1C[C@]23CC[C@@H]4[C@](C)(COC(C)=O)CCC[C@@]4(C)[C@@H]2CC[C@@]1(C)C3 | 13% | – |
| COCO[C@@H]1C[C@]23CC[C@@H]4[C@](C)(COC(=O)NCc5ccccc5)CCC[C@@]4(C)[C@@H]2CC[C@@]1(C)C3 | 50% | – |
| CCCCCCCC(=O)OC[C@]1(C)CCC[C@]2(C)[C@@H]1CC[C@@]13C[C@@H](O)[C@@](C)(CC[C@H]12)C3 | 48% | – |
| C[C@@]12CC[C@@H]3[C@@](CC[C@@H]4[C@](C)(COC(=O)/C=C/C(F)(F)F)CCC[C@]43C)(C[C@H]1O)C2 | – | pIC50 (A549): 5.39 |
| COCO[C@@H]1C[C@]23CC[C@@H]4[C@](C)(COC(=O)COc5ccccc5)CCC[C@@]4(C)[C@@H]2CC[C@@]1(C)C3 | 70% | – |
| COCO[C@@H]1C[C@]23CC[C@@H]4[C@](C)(CO)CCC[C@@]4(C)[C@@H]2CC[C@@]1(C)C3 | 15% | – |
| COCO[C@@H]1C[C@]23CC[C@@H]4[C@](C)(COC(=O)NCc5ccc(OC)cc5)CCC[C@@]4(C)[C@@H]2CC[C@@]1(C)C3 | 89% | fold change (FC) (NCI-H1299 [1]): 2; fold change (FC) (NCI-H1299 [2]): 7; pIC50 [4]: 4.68; fold change (FC) [5]: 4; Activity [6]: 20% |
| CCCNC(=O)OC[C@]1(C)CCC[C@]2(C)[C@@H]1CC[C@@]13C[C@@H](OCOC)[C@@](C)(CC[C@H]12)C3 | 20% | – |
| COCO[C@@H]1C[C@]23CC[C@@H]4[C@](C)(COC(=O)C(C)C)CCC[C@@]4(C)[C@@H]2CC[C@@]1(C)C3 | 20% | – |
| COCO[C@@H]1C[C@]23CC[C@@H]4[C@](C)(COC(=O)Nc5ccc(C(C)=O)cc5)CCC[C@@]4(C)[C@@H]2CC[C@@]1(C)C3 | 60% | – |
| COCO[C@@H]1C[C@]23CC[C@@H]4[C@](C)(COC(=O)c5ccccc5)CCC[C@@]4(C)[C@@H]2CC[C@@]1(C)C3 | 8% | – |
| COCO[C@@H]1C[C@]23CC[C@@H]4[C@](C)(COC(=O)Nc5ccccc5)CCC[C@@]4(C)[C@@H]2CC[C@@]1(C)C3 | 65% | – |
